According to patent US20230002357A1, “7-PYRIMIDINE-2-YL-OXY-INDAZOLE DERIVATIVES AND THEIR USE AS HERBICIDES” (SYNGENTA CROP PROTECTION AG, priority 2019, published 2023):

Columns and labels:
Format in all cases: in vivo
Details in all cases: 250 g/ha, evaluated after 13 days
[1] = system: Amaranthus retoflexus (AMARE); assay: Post-emergence Test, glasshouse, AMARE
Procedure, shortened: (§1)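 Pots were sprayed 1 day after sowing (pre-emergence) or after 8 days' growth (post-emergence) at 250 g/ha, formulated in acetone/water 50:50 with 0.5% Tween 20. Glasshouse conditions were 24/16 °C, 14 h light, 65% humidity. Damage was scored after 13 days on a 1–5 scale (5 = 81–100%).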

[2] = system: IPOHE; assay: Pre-emergence Test, glasshouse, IPOHE
Procedure, shortened: as §1

[3] = system: ABUTH; assay: Post-emergence Test, glasshouse, ABUTH
Procedure, shortened: as §1

[4] = system: Echinochloa crus-galli (ECHCG); assay: Post-emergence Test, glasshouse, ECHCG
Procedure, shortened: as §1

[5] = system: Setaria faberi (SETFA); assay: Post-emergence Test, glasshouse, SETFA
Procedure, shortened: as §1

[6] = system: IPOHE; assay: Post-emergence Test, glasshouse, IPOHE
Procedure, shortened: as §1

[7] = system: Echinochloa crus-galli (ECHCG); assay: Pre-emergence Test, glasshouse, ECHCG
Procedure, shortened: as §1

[8] = system: ABUTH; assay: Pre-emergence Test, glasshouse, ABUTH
Procedure, shortened: as §1

[9] = system: Amaranthus retoflexus (AMARE); assay: Pre-emergence Test, glasshouse, AMARE
Procedure, shortened: as §1

[10] = system: Setaria faberi (SETFA); assay: Pre-emergence Test, glasshouse, SETFA
Procedure, shortened: as §1

Compound	percentage damage caused to the plant, five-point scale, AMARE [1]	percentage damage caused to the plant, five-point scale, IPOHE [2]	percentage damage caused to the plant, five-point scale, ABUTH [3]	percentage damage caused to the plant, five-point scale, ECHCG [4]	percentage damage caused to the plant, five-point scale, SETFA [5]	percentage damage caused to the plant, five-point scale, IPOHE [6]	percentage damage caused to the plant, five-point scale, ECHCG [7]	percentage damage caused to the plant, five-point scale, ABUTH [8]	percentage damage caused to the plant, five-point scale, AMARE [9]	percentage damage caused to the plant, five-point scale, SETFA [10]
FC(F)(F)CCCCn1nc(Cl)c2cccc(Oc3ncc(Cl)cn3)c21 [Compound 1.068]	5 (5=81-100%)	2 (2=21-40%)	4 (4=61-80%)	3 (3=41-60%)	3 (3=41-60%)	2 (2=21-40%)	4 (4=61-80%)	2 (2=21-40%)	5 (5=81-100%)	5 (5=81-100%)
Cl/C=C/Cn1nc(Cl)c2cccc(Oc3ncc(Cl)cn3)c21 [Compound 1.069]	5 (5=81-100%)	1 (1=0-20%)	4 (4=61-80%)	3 (3=41-60%)	2 (2=21-40%)	2 (2=21-40%)	3 (3=41-60%)	2 (2=21-40%)	3 (3=41-60%)	5 (5=81-100%)
Cc1cnc(Oc2cccc3c(C(F)(F)F)nn(CCCC(F)(F)F)c23)nc1 [Compound 1.070]	3 (3=41-60%)	1 (1=0-20%)	5 (5=81-100%)	4 (4=61-80%)	3 (3=41-60%)	3 (3=41-60%)	4 (4=61-80%)	3 (3=41-60%)	5 (5=81-100%)	4 (4=61-80%)
Fc1cnc(Oc2cccc3c(C(F)(F)F)nn(CCCC(F)(F)F)c23)nc1 [Compound 1.071]	5 (5=81-100%)	2 (2=21-40%)	5 (5=81-100%)	4 (4=61-80%)	4 (4=61-80%)	4 (4=61-80%)	5 (5=81-100%)	3 (3=41-60%)	5 (5=81-100%)	5 (5=81-100%)
FC(F)(F)CCCn1nnc2c(Cl)ccc(Oc3ncc(Cl)cn3)c21 [Compound 1.072]	4 (4=61-80%)	1 (1=0-20%)	1 (1=0-20%)	3 (3=41-60%)	3 (3=41-60%)	3 (3=41-60%)	2 (2=21-40%)	1 (1=0-20%)	4 (4=61-80%)	4 (4=61-80%)
